# In patent US20090298866A1, “Indole Compounds” (priority 2006, published 2009):
# Structures can show the parent of a compound that is named as a salt.
# Experiments:
# human EP1 receptor [1] = target: T1, human EP1 receptor (Homo sapiens, UniProt P34995); test: Binding assay for the human prostanoid EP1 receptor (competition with [3H]-PGE2); settings: binding to human EP1 receptor, CHO-K1 membranes, [3H]-PGE2 3 nM; averages of a number of experiments
# T1 construct: expressed in transfected cells; host or cells: CHO-K1
# T1 sequence (P34995 1-402): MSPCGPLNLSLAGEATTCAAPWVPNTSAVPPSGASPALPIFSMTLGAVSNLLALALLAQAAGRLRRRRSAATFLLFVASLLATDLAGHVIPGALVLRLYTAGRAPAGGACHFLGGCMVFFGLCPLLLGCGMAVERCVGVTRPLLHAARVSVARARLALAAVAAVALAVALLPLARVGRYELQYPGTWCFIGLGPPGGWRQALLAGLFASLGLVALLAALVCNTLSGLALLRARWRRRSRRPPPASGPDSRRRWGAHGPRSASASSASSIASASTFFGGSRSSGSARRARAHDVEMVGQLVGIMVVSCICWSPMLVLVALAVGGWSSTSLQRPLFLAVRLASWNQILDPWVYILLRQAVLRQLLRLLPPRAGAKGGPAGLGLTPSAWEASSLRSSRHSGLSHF
# Experimental: Competition assay using [^3H]-PGE2.
# Compound potencies are determined using a radioligand binding assay. In this assay compound potencies are determined from their ability to compete with tritiated prostaglandin E2 ([^3H]-PGE2) for binding to the human EP1 receptor. This assay utilises Chinese hamster ovary-K1 (CHO-K1) cells into which a stable vector containing the EP1 cDNA has previously been transfected. Cells are cultured in suitable flasks containing culture medium such as DMEM:F-12 supplemented with 10% v/v foetal calf serum, 2 mM L-glutamine, 0.25 mg/ml geneticin, 10 μg/ml puromycin and 10 μM indomethacin.
# Cells are detached from the culture flasks by incubation in calcium and magnesium free phosphate buffered saline containing 1 mM disodium ethylenediaminetetraacetic acid (Na2EDTA) and 10 μM indomethacin for 5 min. The cells are isolated by centrifugation at 250×g for 5 mins and suspended in an ice cold buffer such as 50 mM Tris, 1 mM Na2EDTA, 140 mM NaCl, 10 μM indomethacin (pH 7.4). The cells are homogenised using a Polytron tissue disrupter (2×10 s burst at full setting), centrifuged at 48,000×g for 20 mins and the pellet containing the membrane fraction is washed (optional) three times by suspension and centrifugation at 48,000×g for 20 mins. The final membrane pellet is suspended in an assay buffer such as 10 mM 2-[N-morpholino]ethanesulphonic acid, 1 mM Na2EDTA, 10 mM MgCl2 (pH 6). Aliquots are frozen at −80° C. until required.
# For the binding assay the cell membranes, competing compounds and [^3H]-PGE2 (3 nM final assay concentration) are incubated in a final volume of 100 μl for 30 min at 30° C. All reagents are prepared in assay buffer. Reactions are terminated by rapid vacuum filtration over GF/B filters using a Brandell cell harvester. The filters are washed with ice cold assay buffer, dried and the radioactivity retained on the filters is measured by liquid scintillation counting in Packard TopCount scintillation counter.
# The data are analysed using non linear curve fitting techniques to determine the concentration of compound producing 50% inhibition of specific binding (IC50).
# human EP1 receptor [2] = target: T1, human EP1 receptor; test: human EP1 calcium mobilisation assay; format: cell-based; settings: human EP1, CHO-K1 cells, PGE2-induced calcium mobilisation; averages of a number of experiments; read-out: functional pKi (converted)
# Experimental: Briefly, the antagonist properties of compounds are assessed by their ability to inhibit the mobilisation of intracellular calcium ([Ca^2+]i) in response to activation of EP1 or EP3 receptors by the natural agonist hormone prostaglandin E2 (PGE2). Increasing concentrations of antagonist reduce the amount of calcium that a given concentration of PGE2 can mobilise. The net effect is to displace the PGE2 concentration-effect curve to higher concentrations of PGE2. The amount of calcium produced is assessed using a calcium-sensitive fluorescent dye such as Fluo-4, AM and a suitable instrument such as a Fluorimetric Imaging Plate Reader (FLIPR). Increasing amounts of [Ca^2+]i produced by receptor activation increase the amount of fluorescence produced by the dye and give rise to an increasing signal. The signal may be detected using the FLIPR instrument and the data generated may be analysed with suitable curve-fitting software.
# The human EP1 or EP3 calcium mobilisation assay (hereafter referred to as ‘the calcium assay’) utilises Chinese hamster ovary-K1 (CHO-K1) cells into which a stable (pCIN; BioTechniques 20 (1996): 102-110) vector containing either EP1 or EP3 cDNA has previously been transfected. Cells are cultured in suitable flasks containing culture medium such as DMEM:F-12 supplemented with 10% v/v foetal calf serum, 2 mM L-glutamine, 0.25 mg/ml geneticin, 100 μM flurbiprofen and 10 μg/ml puromycin.
# For assay, cells are harvested using a proprietary reagent that dislodges cells such as Versene. Cells are re-suspended in a suitable quantity of fresh culture media for introduction into a 384-well plate. Following incubation for 24 hours at 37° C. the culture media is replaced with a medium containing Fluo-4 and the detergent pluronic acid, and a further incubation takes place. Concentrations of compounds are then added to the plate in order to construct concentration-effect curves. This may be performed on the FLIPR in order to assess the agonist properties of the compounds. Concentrations of PGE2 are then added to the plate in order to assess the antagonist properties of the compounds.
# The data so generated may be analysed by means of a computerised curve-fitting routine. The concentration of compound that elicits a half-maximal inhibition of the calcium mobilisation induced by PGE2 (pIC50) may then be estimated.
IC50 (human EP1 receptor [1]) [nM],Ki (human EP1 receptor [2]) [nM],SMILES
≤ 100,–,"CC(C)Cc1cn(-c2nc(NC(=O)C3CCCC3)cs2)c2cc(Cl)ccc12 [Example 3, N-{2-[6-Chloro-3-isobutyl-1H-indol-1-yl]-1,3-thiazol-4-yl}cyclopentanecarboxamide]"
≤ 100,–,"CC(C)Cc1cn(-c2nc(NC(=O)C(C)(C)C)cs2)c2cc(Cl)ccc12 [Example 4, N-{2-[6-Chloro-3-isobutyl-1H-indoi-1-yl]-1,3-thiazol-4-yl}-2,2-dimethylpropanamide]"
–,≤ 100,"CC(C)Cc1cn(-c2nc(NC(=O)c3c(F)cccc3F)cs2)c2cc(Cl)ccc12 [Example 5, N-[2-(6-Chloro-3-isobutyl-1H-indol-1-yl)-1,3-thiazol-4-yl]-2,6-difluorobenzamide]"
–,≤ 100,"CC(C)Cc1cn(-c2nc(C(=O)N3CCCC3)cs2)c2cc(Cl)ccc12 [Example 11, 6-Chloro-3-isobutyl-1-[4-(1-pyrrolidinylcarbonyl)-1,3-thiazol-2-yl]-1H-indole]"
≤ 100,≤ 100,"CC(C)Cc1cn(-c2nc(C(=O)Nc3ccc(CO)cc3)cs2)c2cc(Br)ccc12 [Example 12, 2-[6-Bromo-3-isobutyl-1H-indol-1-yl]-N-[4-(hydroxymethyl)phenyl]-1,3-thiazole-4-carboxamide]"
≤ 100,–,"CC(C)c1cn(-c2nc(C(=O)Nc3ccccc3N)cs2)c2cc(Cl)ccc12 [Example 13, N-(2-Aminophenyl)-2-[6-chloro-3-isopropyl-1H-indol-1-yl]-1,3-thiazole-4-carboxamide]"
≤ 100,≤ 100,"CC(C)Cc1cn(-c2nc(C(=O)Nc3ccccc3CO)cs2)c2cc(Cl)ccc12 [Example 20, 2-[6-Chloro-3-isobutyl-1H-indol-1-yl]-N-[2-(hydroxymethyl)phenyl]-1,3-thiazole-4-carboxamide]"
≤ 100,–,"CC(C)Cc1cn(-c2nc(C(=O)Nc3ccc(CO)cc3)cs2)c2cc(Cl)ccc12 [Example 21, 2-[6-Chloro-3-isobutyl-1H-indol-1-yl]-N-[4-(hydroxymethyl)phenyl]-1,3-thiazole-4-carboxamide]"
–,≤ 100,"CC(C)Cc1cn(-c2nc(C(=O)Nc3cccc(CO)c3)cs2)c2cc(Cl)ccc12 [Example 24, 2-[6-Chloro-3-isobutyl-1H-indol-1-yl]-N-[3-indol-1-yl]N-[3-(hydroxymethyl)phenyl]-1,3-thiazole-4-carboxamide]"
–,≤ 100,"CC(C)Cc1cn(-c2nc(C(=O)NCCCO)cs2)c2cc(Cl)ccc12 [Example 26, 2-[6-Chloro-3-isobutyl-1H-indol-1-yl]-N-(3-hydroxypropyl)-1,3-thiazole-4-carboxamide]"
–,≤ 100,"CC(C)Cc1cn(-c2nc(C(=O)Nc3ccccn3)cs2)c2cc(Cl)ccc12 [Example 27, 2-[6-Chloro-3-isobutyl-1H-indol-1-yl]-N-2-pyridinyl-1,3-thiazole-4-carboxamide]"
–,≤ 100,"CC(C)Cc1cn(-c2nc(C(=O)Nc3ccc(F)cc3)cs2)c2cc(Cl)ccc12 [Example 29, 2-[6-Chloro-3-isobutyl-1H-indol-1-yl]-N-(4-fluorophenyl)-1,3-thiazole-4-carboxamide]"
–,≤ 100,"CC(C)Cc1cn(-c2nc(C(N)=O)cs2)c2cc(Cl)ccc12 [Example 30, 2-[6-Chloro-3-isobutyl-1H-indol-1-yl]-1,3-thiazole-4-carboxamide]"
–,≤ 100,"CC(C)Cc1cn(-c2nc(C(N)=O)cs2)c2cc(Br)ccc12 [Example 32, 2-[6-Bromo-3-isobutyl-1H-indol-1-yl]-1,3-thiazole-4-carboxamide]"
–,≤ 100,"CC(C)Cc1cn(Cc2nc(C(N)=O)cs2)c2cc(Cl)ccc12 [Example 34, 2-{[6-Chloro-3-isobutyl-1H-indol-1-yl]methyl}-1,3-thiazole-4-carboxamide]"
≤ 100,≤ 100,"CC(C)Cc1cn(-c2nc(-c3nc4ccccc4[nH]3)cs2)c2cc(Cl)ccc12 [Example 35, 2-{2-[6-Chloro-3-isobutyl-1H-indol-1-yl]-1,3-thiazol-4-yl}-1H-benzimidazole hydrochloride]"
≤ 100,–,"CC(C)(C)CCc1cn(-c2nc(-c3nc4ccccc4[nH]3)cs2)c2cc(Cl)ccc12 [Example 37, 2-{2-[6-Chloro-3-(3,3-dimethylbutyl)-1H-indol-1-yl]-1,3-thiazol-4-yl}-1H-benzimidazole hydrochloride]"
≤ 100,≤ 100,"CC(C)Cc1cn(-c2nc(-c3nc4ccccc4[nH]3)cs2)c2cc(Br)ccc12 [Example 38, 2-{2-[6-Bromo-3-isobutyl-1H-indol-1-yl]-1,3-thiazol-4-yl}-1H-benzimidazole hydrochloride]"
≤ 100,–,"CC(C)Cc1nn(-c2nc(-c3nc4ccccc4[nH]3)cs2)c2cc(Cl)ccc12 [Example 39, 1-[4-(1H-Benzimidazol-2-yl)-1,3-thiazol-2-yl]-6-chloro-3-isobutyl-1H-indazole hydrochloride]"
≤ 100,≤ 100,"CC(C)Cc1cn(Cc2nc(-c3nc4ccccc4[nH]3)cs2)c2cc(Cl)ccc12 [Example 40, 2-(2-{[6-Chloro-3-isobutyl-1H-indol-1-yl]methyl}-1,3-thiazol-4-yl)-1H-benzimidazole hydrochloride]"
≤ 100,≤ 100,"CC(C)Cc1cn(-c2nc(-c3nc4ccccc4[nH]3)cs2)c2cc(C(F)(F)F)ccc12 [Example 41, 2-{2-[3-Isobutyl-6-(trifluoromethyl)-1H-indol-1-yl]-1,3-thiazol-4-yl}-1H-benzimidazole]"
≤ 100,–,"CC(C)Cc1cn(-c2nc(-c3nc4ncccc4[nH]3)cs2)c2cc(Cl)ccc12 [Example 42, 2-{2-[6-Chloro-3-isobutyl-1H-indol-1-yl]-1,3-thiazol-4-yl}-1H-imidazo[4,5-b]pyridine hydrochloride]"
≤ 100,≤ 100,"CC(C)Cc1cn(-c2nc(-c3nc4cnccc4[nH]3)cs2)c2cc(Cl)ccc12 [Example 43, 2-{2-[6-Chloro-3-isobutyl-1H-indol-1-yl]-1,3-thiazol-4-yl}-1H-imidazo[4,5-c]pyridine hydrochloride]"
≤ 100,–,"CC(C)Cc1cn(-c2nc(-c3ncc[nH]3)cs2)c2cc(Cl)ccc12 [Example 47, 6-Chloro-1-[4-(1H-imidazol-2-yl)-1,3-thiazol-2-yl]-3-isobutyl-1H-indole]"
–,≤ 100,"CC(C)Cc1cn(-c2nc(-c3nc(-c4ccccc4)c[nH]3)cs2)c2cc(Cl)ccc12 [Example 52, 6-Chloro-3-isobutyl-1-[4-(4-phenyl-1H-imidazol-2-yl)-1,3-thiazol-2-yl]-1H-indole]"
